The nature of data set [1]: Static μPET/CT imaging at 45 min p.i. of short chain 18F-fatty acids and esters (Example 1).
Experimental: FIG. 1 is a series of Static Sagital and Coronal Maximum Intensity Projections (MIPs) μPET/CT images obtained at 45 minutes p.i. for the compounds studied (excluding palmitate) in normally fed animals. Imaging with ethyl-protected intermediates are also shown (e-).
Wild type immunocompetent animals were used, both for imaging and biodistribution experiments.
The activity was administered to the awake animals (n=2) via tail-vein injection (9.25-18.5 MBq, or 250-500 μCi) and placed back into their cages. At 35 minutes post injection (p.i.), animals were place in an acrylic enclosure under 4% isoflurane anesthesia in O2 for initial knockdown, then reduced to 2.5%. Once asleep, animals were placed in the imaging holder and a 5-minute CT was followed by a 15-minute static PET (approx. 45-60 min p.i., or 10-15 min after completion of anesthesia). As before, animals were allowed to recover from the anesthesia before returning to the holding facility for decay. When warranted, animals were studied with regular feeding and fasting for 6-12 hours to evaluate any difference in biodistribution.
The nature of data set [2]: Static μPET/CT imaging at 45 min p.i. of medium and long chain 18F-fatty acids (Example 2). To be noted: for brain uptake: includes earlier short chain data; for defluorination (bone uptake) / metabolic rate: static PET.
Experimental: All animal experiments were approved by the Albert Einstein College of Medicine IACUC. Wild type immunocompetent animals were used for imaging. Feeding and water conditions were maintained throughout the study. Animals were never fasted.
The agent was administered to awake animals via tail-vein injection (9.25-18.5 MBq, or 250-500 μCi, n=2) and placed back into their cages. At 40 minutes post injection (henceforth p.i.), animals were place in an acrylic enclosure under 4% isoflurane anesthesia in O2 for initial knockdown, then reduced to 2.5%. Once asleep, animals were placed in the imaging holder and a 5-minute CT followed by a 15-minute static PET were performed (Approx. 45-60 min p.i.). As before, animals were allowed to recover from the anesthesia before returning to the holding facility for radiotracer decay. Images were analyzed by drawing regions of interest (ROIs) and quantifying the amount of tracer present as percent of injected activity per cubic centimeter (% IA/cc). Blood, urinary bladder and gut activity were determined by computer drawing of 2 mm diameter ROI spheres in the left cardiac ventricle, the urinary bladder and the areas of specific gut uptake, respectively. Brain, liver and kidney ROIs were drawn CT-aided and the radioactive contents were later quantified.
For data set [3] the following is noted: cancer patients; cited from earlier work.
Data set [4] can be described thus: Dynamic PET imaging (60 min) of butyrate analogues (Example 1). It counts as in vivo, wild type mice. Conditions: for in vivo behavior / biodistribution, comparison of isomers: 4-[^18F]FB vs 2-[^18F]FB. On the procedure:
FIG. 10 is a series of dynamic μPET/CT images depicting the biodistribution of 2-[^18F]FB and 4-[^18F]FB in wild type mice. Stable biodistribution was achieved after 45 minutes p.i.
Animals were anesthetized under 3% isoflurane in 02. […] Animals were allowed to recover from anesthesia and were carefully observed before moving them back to the holding facility for decay. Data was reconstructed as five 12-minute frames and as twelve 5-minute frames for analysis.

Data set [5] relates to monocarboxylate transporter (MCT). Kind of data set: PET imaging of 2-[^18F]FP with lactate displacement and MCT inhibition by AZD-3965 co-injection. Format: in vivo, wild type mice. From the text: FIG. 2 is a graph depicting PET-derived quantification of brain and pancreatic (“gut”) uptake of 2-[^18F]FP and 2-(L)-[^18F]FP under different conditions (n=2).
FIG. 12 is a collection of dynamic μPET/CT images that compare different imaging conditions including blocking with the MCT1 blocker AZD3965.
Further experiments to test the possibility of using 2-[^18F]FP and 2-(L)-[^18F]FP as a lactate surrogate, including co-injection with (L)Lactate, (D)Lactate, and AZD-3965 to produce displacement and monocarboxylate transporter (MCT) inhibition (respectively) were conducted and results can be observed in FIG. 2. The corresponding μPET/CT images can be found in the FIG. 12.
The unique characteristics of 2-[^18F]FP open many possibilities to study cancers and brain/CNS function and metabolism. As with 2-[^18F]FB the enantiomers have not been separated for either production or quality control. However, parametric production of 2-(L)-[^18F]FP was possible since the ethyl(2R)-2-{[(4-methylphenyl) sulfonyl]oxy}propanoate is commercially available. This compound's ability to resemble (L)-lactate has been contested in vitro, with confounding in vivo results. For comparison we co-injected 2-[^18F]FP separately with 0.5 and 5 mg/kg (L) and (D) sodium lactate (an increase of 5 and 50% respectively in homeostatic lactate circulation), and 5 mg/Kg of AZD-3965, an monocarboxylate transporter (MCT) 1 and 2 inhibitor (Ki(MCT1)=3 nM, Ki(MCT2)=20 nM) in the same animal model.

For data set [6], the system named is MCT1. To be noted: in vitro, Van Hée et al.; cited from earlier work.
For data set [7], the target named is MCT1. Conditions: role: inhibitor; cited from earlier work.
The target of the next data set is MCT2. To be noted: role: inhibitor; cited from earlier work.
A short description of data set [8]: Stability in HCl and saline solution. Format: physicochemical. Conditions: for stability in HCl: HCl lower than 3 M.
Setting [9] is: co-injection with AZD-3965, 5 mg/Kg.

The structures appear in SMILES notation. “Also recorded” adds a separate entry of the source.

Consider `CCOC(=O)C([18F])CC` (stereo not drawn) [e-2-[^18F]FB, Ethyl 2-[^18F]Fluorobutyrate], for which, in data set [1] (static PET, 45 min p.i.), the blood circulation time result is recorded as “slightly longer blood circulation” and the general biodistribution result was “almost identical biodistribution”.
Turning to `CCCCCCCCCCCCCCC([18F])C(=O)O` (racemic) [2-[^18F]FPalm, 2-[^18F]Fluorohexadecanoic acid], in data set [2] (45 min p.i.), the blood content result is on record as “reduced”, the liver uptake entry was “predominant liver uptake”, the specific abdominal uptake result is “not found” and the brain uptake entry is on record as “significantly reduced”. In addition, in data set [2] (45 min p.i.), the “defluorination (bone uptake)” value is “slightly higher defluorination rate”.
Turning to `CC(=O)O` [[^11C]Acetate], the “uptake in comparison with [^18F]FDG” value in [3] is “mutually exclusive”.
`O=C(O)CCCCCCCCCCCCCCC[18F]` [16-[^18F]FPalm, 16-[^18F]Fluorohexadecanoic acid]: the “bright spot in liver / autopsy finding” value in data set [2] (one animal) was “a bright spot was found in one the animal's liver, but later autopsy did not revealed any interesting finding”. Besides, the “defluorination (bone uptake)” value in data set [2] (45 min p.i.) was “faster for the 16-substituted compound, although much slower in contrast to its MCFA n-substituted congeners”.
Consider `O=C(O)CCC[18F]` [4-[^18F]FB, 4-[^18F]Fluorobutyrate], for which, in data set [4], the “in vivo behavior / biodistribution, comparison of isomers” value is on record as “behaved very differently in vivo”. Moreover, in data set [1] (fasted vs fed, 45 min p.i.), the “circulatory activity, fasted vs fed” value is reported as “slight increase in circulatory activity” and the “metabolic activity / defluorination, fasted vs fed” value is “reduced defluorination; also recorded: reduction in metabolic activity was especially noticeable; also recorded: slight decrease in metabolic rate”.
With `CC([18F])C(=O)O` (racemic) [2-[^18F]FP, 2-[^18F]Fluoropropionate], in data set [2] (45 min p.i.), the brain uptake result is reported as “High brain uptake”. Besides, the “apparent stability in vivo” value in data set [1] (no metabolite analysis performed) is “seems to be stable in vivo in the studied period; also recorded: high apparent probe stability in vivo”. Besides, in data set [1] (static PET, 45 min p.i.), the blood circulation time result was “decreased circulation times” and the defluorination in vivo result is given as “only minor defluorination was observed; also recorded: no defluorination was observed”. For the same compound, the brain/CNS uptake result in [1] (static PET, 45 min p.i., fed) is “maintained CNS uptake; also recorded: specific uptake in brain and the central nervous system; also recorded: marked brain uptake”. The “abdominal uptake under different imaging conditions” value in data set [5] (different imaging conditions (fasting, lactate)) is “remained stable and not affected by the different imaging conditions”. Besides, the “average brain uptake, fasting or co-injection with (L)-lactate” value in data set [5] (fasting, co-injection with 5 mg/kg (L)-lactate, differences not significant) was “slight increase in average brain uptake”. Besides, in the data set with MCT1 [6], the MCT1-dependent accumulation entry is reported as “does not accumulate in a MCT1-dependent manner”.
Turning to `CCCC([18F])C(=O)O` (racemic) [2-[^18F]FV, 2-Fluorovalerate], in data set [2] (45 min p.i.), the specific abdominal uptake result was “evident”, the brain uptake entry was “High brain uptake” and the “defluorination (bone uptake)” value is given as “small bone uptake”.
Turning to `O=C(O)C[18F]` [[^18F]FA, [^18F]Fluoroacetate], the brain uptake result in data set [2] (45 min p.i.) is given as “High brain uptake”. Also, in data set [1] (static PET, 45 min p.i.), the blood circulation time entry is given as “decreased circulation times”. Further, in [1] (static PET, 45 min p.i., fed), the brain/CNS uptake entry is given as “maintained CNS uptake” and the specific gut uptake result is reported as “highest uptake”.
Regarding `O=C(O)CCCCCC[18F]` [7-[^18F]FE, 7-Fluoroenanthate], the metabolic rate entry in [2] (45 min p.i.) is “much faster metabolic rate than that of 6-[^18F]FC and 8-[^18F]FCy”.
As for `CCC([18F])C(=O)O` (racemic) [2-[^18F]FB, 2-[^18F]Fluorobutyrate], in [2] (45 min p.i.), the brain uptake entry is recorded as “High brain uptake”. For the same compound, the brain uptake entry in data set [2] (45 min p.i., listed as 2-[^18F]Fluorobutyrate) is given as “peaking”. In [4], the “brain/central nervous system (CNS) uptake” value is “the highest of the studied series”; the gut uptake result was “seemingly specific gut uptake”; the “in vivo behavior / biodistribution, comparison of isomers” value is listed as “behaved very differently in vivo”. Further, in data set [1] (fasted vs fed, 45 min p.i.), the “brain uptake, fasted vs fed” value was “small reduction in brain uptake (not significant)”; the “circulatory activity, fasted vs fed” value is on record as “slight increase in circulatory activity”; the “gut uptake, fasted vs fed” value is “modest reduction; also recorded: reduction in the aforementioned specifically located gut uptake”; the “metabolic activity / defluorination, fasted vs fed” value is “reduced defluorination; also recorded: slight decrease in metabolic rate”. For the same compound, the brain/CNS uptake result in data set [1] (static PET, 45 min p.i., fed) is “marked brain uptake”. Moreover, in [1] (with or without isoflurane, with or without fasting), the “brain uptake with or without isoflurane anesthesia and fasting” value is “remained unchanged with or without isoflurane anesthesia, and with or without fasting”.
On to `CCCCCCC([18F])C(=O)O` (racemic) [2-[^18F]FCy, 2-Fluorocaprylate], for which, in [2] (45 min p.i.), the specific abdominal uptake entry is “not found”, the brain uptake entry is given as “significantly reduced” and the “defluorination (bone uptake)” value is listed as “Almost no defluorination”.
Turning to `Cc1[nH]nc(C(F)(F)F)c1Cc1sc2c(c1C(=O)N1C[C@](C)(O)CO1)c(=O)n(C)c(=O)n2C(C)C` [AZD-3965], the Ki at MCT1 [7] was 3 nM. Further, at MCT2, the Ki was 20 nM. The “blocking of gut uptake by AZD-3965” value in [5] (co-injection with AZD-3965) is listed as “selectively blocked”. In data set [5] (setting [9]), the “blocking of uptake / biodistribution by AZD-3965” value was “blocked the overall biodistribution of 2-[^18F]FP; also recorded: significant blocking of fatty acid uptake” and the “excretion with AZD-3965 co-injection” value is on record as “almost complete excretion; also recorded: increased excretion”.
For the compound `CCCCCC([18F])C(=O)O` (racemic) [2-[^18F]FE, 2-Fluoroenanthate], in data set [2] (45 min p.i.), the specific abdominal uptake entry is on record as “not found”, the brain uptake result is reported as “significantly reduced; also recorded: all brain uptake is stopped; also recorded: stops abruptly” and the “defluorination (bone uptake)” value is reported as “small bone uptake”.
With `O=C(O)CCCC[18F]` [5-[^18F]FV, 5-Fluorovalerate], the metabolic rate entry in data set [2] (45 min p.i.) is “much faster metabolic rate than that of 6-[^18F]FC and 8-[^18F]FCy”.
For the compound `CC([18F])CC(=O)O` (stereo not drawn) [3-[^18F]FB, 3-[^18F]Fluorobutyrate], in data set [8], the “stability in HCl” value is listed as “not stable” and the “stability in saline solution” value is recorded as “decomposed immediately”.
In the case of `CCCCC([18F])C(=O)O` (racemic) [2-[^18F]FC, 2-Fluorocaproate], in data set [2] (45 min p.i.), the specific abdominal uptake result was “not found”, the brain uptake result is recorded as “High brain uptake; also recorded: the longest substrate absorbed by the brain” and the “defluorination (bone uptake)” value is “Almost no defluorination”.
For `CCOC(=O)CCC[18F]` [e-4-[^18F]FB, Ethyl 4-[^18F]Fluorobutyrate], in data set [1] (static PET, 45 min p.i.), the blood circulation time entry was “slightly longer blood circulation” and the general biodistribution entry is recorded as “almost identical biodistribution”.
On to `CCOC(=O)CC[18F]` [e-3-[^18F]FP, Ethyl 3-[^18F]Fluoropropionate], for which, in data set [8], the “stability in HCl” value was “not stable” and the “stability in saline solution” value is “decomposed immediately”.
The corresponding values for `CCOC(=O)CC(C)[18F]` (stereo not drawn) [e-3-[^18F]FB, Ethyl 3-[^18F]Fluorobutyrate] are “not stable” and “decomposed immediately”.
Regarding `O=C(O)CC[18F]` [3-[^18F]FP, 3-[^18F]Fluoropropionate], in [8], the “stability in HCl” value is “not stable” and the “stability in saline solution” value was “decomposed immediately”.
`CC(C)([18F])C(=O)O` [2-[^18F]FIB, 2-[^18F]Fluoroisobutyrate]: in [1] (static PET, 45 min p.i.), the blood circulation time entry is reported as “long circulation time”, the defluorination in vivo entry is listed as “without defluorination” and the general biodistribution result is on record as “non-specificity”. The brain/CNS uptake entry in data set [1] (static PET, 45 min p.i., fed) is “marked brain uptake in contrast to their branched congener”.

The Ki is a dissociation constant, usually derived from enzyme kinetics or from competition with a known ligand.

These data come from patent US20260308102A1, “18F-FLUORINATED FATTY ACIDS AND USES THEREOF” (Ratio Therapeutics, Inc., priority 2022, published 2026).
